Results from patent US20240140991A1, “ANTIBIOTIC NATURAL PRODUCT ANALOGUES” (THE QUEEN'S UNIVERSITY OF BELFAST, priority 2021, published 2024).
≈ marks a conversion by molar mass, not a printed value. Values belong to the compound of their own block, whether it stands above or below them. Positions of bridges follow the written chain, without caps; N, C: chain ends. Non-standard residues stand in square brackets, D forms with d. Residues, ends and D or L forms follow the SMILES beside them. ξ: configuration not given here. *: point of attachment. Octanoyl(7-Me) = CC(C)CCCCCC(=O)*; Hexanoyl(4ξ-Me) = CCC(C)CCC(=O)*; dOrn = NCCC[C@@H](N)C(=O)O; Orn = NCCC[C@H](N)C(=O)O; Dap = NC[C@H](N)C(=O)O

What was measured:
[1] = system: HepG2 cells; assay: Cytotoxicity MTT assay; details: HepG2, 128 μg/mL, 24 h
Description: In addition to a single vehicle control, compounds (diluted from DMSO stock) were added to each well to obtain in a final 128 μg/mL concentration (max. final DMSO concentration 0.5%) for all compounds except for oritavancin which was administered at 50 μM. Incubation was done for 24 h at 37° C., 7% CO2. After the incubation, MTT was added to each well at a final concentration of 0.40 mg/mL. The plates were then incubated for 2 h at 37° C., 7% CO2. Medium was carefully removed via suction, and purple formazan crystals were resuspended in 100 μL DMSO. Absorbance was read at 570 nm using a Clariostar plate reader. The data was then analysed with GraphPad Prism software. Technical triplicates for each condition were used, along with biological duplicates.

[2] = system: P. aeruginosa NRZ-03961; format: cell-based, Pseudomonas aeruginosa; details: NRZ-03961
Description: (§1) Minimum inhibitory concentration (MIC) was determined by broth microdilution according to CLSI guidelines. Blood agar plates were inoculated with glycerol stocks of Escherichia coli ATCC 25922, E. coli ATCC 25922 MCR-1, E. coli MCR-1 (clinical isolate from Utrecht Medical Center, NL), E. coli EQAS MCR-2 (clinical isolate from Wageningen University and Research, NL), Kiebsielia pneumoniae ATCC 11228, K. pneumoniae ATCC 13883, K. pneumonia 2048 (clinical isolate from Vrije Universiteit Amsterdam Medical Center, NL), K. pneumonia JS-123 (clinical isolate from Utrecht Medical Center, NL), Acinetobacter baumannii ATCC 17961, A. baumannil ATCC 17978, A. baumannii 2018-006 (clinical isolate from Rijksinstituut voor Volksgezondheid en Milieu, NL), A. baumannii MDR (clinical isolate from Vrije Universiteit Amsterdam Medical Center, NL), Pseudomonas aeruginosa ATCC 27853, P. aeruginosa PAO1, P. aeruginosa NRZ-03961 (Reference strain from Das Nationale Referenzzentrum für gramnegative Krankenhauserreger, DE), P. aeruginosa M-120 (clinical isolate from Leiden University Medical Center, NL) and Staphylococcus aureus USA300 (clinical isolate from Texas Children's Hospitalm, USA). E. coli 25922 MCR1 was grown on LB agar supplemented with kanamycin. The inoculated agar plates were then incubated for 16 hours at 37° C. Individually grown colonies were subsequently used to inoculate 3 mL aliquots of TSB that were then incubated at 37° C. with shaking at 220 rpm. In parallel, the compounds to be assessed were serially diluted with Mueller-Hinton broth (MHB) in polypropylene 96-well plates (50 μL in each well). Once the OD600 of the bacterial suspensions reached 0.5, the bacteria were diluted with MHB (final concentration 2×10^5 CFU mL^−1) and added to the microplates containing the test compounds (50 μL to each well, final volume: 100 μL). The well-plates were sealed with an adhesive membrane and after 16 hours of incubation at 37° C. with shaking at 220 rpm the wells were visually inspected for bacterial growth. MIC values were defined as the lowest concentration of the compound that prevented visible growth of bacteria.

[3] = system: P. aeruginosa M-120; format: cell-based, Pseudomonas aeruginosa; details: M-120
Description: as §1

[4] = system: P. aeruginosa PAO1; format: cell-based, Pseudomonas aeruginosa; details: PAO1
Description: as §1

[5] = system: Pseudomonas aeruginosa ATCC 27853; format: cell-based; details: ATCC 27853
In short: (§2)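 Broth microdilution in MHB per CLSI; inoculum 2×10^5 CFU mL^−1 from log-phase TSB cultures at OD600 0.5. Plates incubated 16 hours at 37° C with shaking at 220 rpm. MIC is the lowest concentration preventing visible growth.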

[6] = system: Acinetobacter baumannii ATCC 17961; format: cell-based; details: ATCC 17961
In short: as §2

[7] = system: Staphylococcus aureus USA300; format: cell-based; details: USA300
In short: as §2

[8] = system: Escherichia coli ATCC 25922; format: cell-based; details: ATCC 25922
In short: as §2

[9] = system: K. pneumoniae JS-123; format: cell-based, Klebsiella pneumoniae; details: JS-123
Description: as §1

[10] = system: K. pneumoniae ATCC 13883; format: cell-based, Klebsiella pneumoniae; details: ATCC 13883
Description: as §1

[11] = system: K. pneumoniae ATCC 11228; format: cell-based, Klebsiella pneumoniae; details: ATCC 11228
Description: as §1

[12] = system: K. pneumoniae 2048; format: cell-based, Klebsiella pneumoniae; details: 2048
Description: as §1

[13] = system: A. baumannii ATCC 17978; format: cell-based, Acinetobacter baumannii; details: ATCC 17978
Description: as §1

[14] = system: A. baumannii 2018-006; format: cell-based, Acinetobacter baumannii; details: 2018-006
Description: as §1

[15] = system: E. coli MCR-1; format: cell-based, Escherichia coli; details: E. coli MCR-1 clinical isolate (colistin resistant)
Description: as §1
(§3) In the table above, “MCR” denotes that one of the MCR family of genes, which confers colistin resistance, is present in the bacterial strain. Thus, E. coli ATCC 25922 MCR-1, E. coli MCR-1 and E. coli EQAS MCR-2 are each colistin resistant. […] Therefore, laterocidamide may overcome some of the challenges faced due to antibiotic resistance.

[16] = system: E. coli ATCC 25922 MCR-1; format: cell-based, Escherichia coli; details: E. coli ATCC 25922 MCR-1 (colistin resistant)
Description: as §1, §3

[17] = system: E. coli EQAS MCR-2; format: cell-based, Escherichia coli; details: E. coli EQAS MCR-2 clinical isolate (colistin resistant)
Description: as §1, §3

[18] = system: A. baumannii MDR; format: cell-based, Acinetobacter baumannii; details: A. baumannii MDR clinical isolate
Description: as §1

[19] = system: E. Coli NCTC 12241; format: cell-based
Description: as §1
were tested for inhibition of E. Coli NCTC 12241.

[20] = system: E. coli; format: cell-based

Compound: CCC(C)CCC(=O)N[C@H](CC(N)=O)C(=O)N[C@H](Cc1ccc(O)cc1)C(=O)N[C@H](Cc1c[nH]c2ccccc12)C(=O)N[C@H](CCCN)C(=O)N[C@@H](CCCN)C(=O)NCC(=O)N[C@H](CCCN)C(=O)N[C@@H](Cc1c[nH]c2ccccc12)C(=O)N[C@@H]1C(=O)N[C@@H]([C@@H](C)CC)C(=O)NCC(=O)N[C@@H](CO)C(=O)O[C@@H]1C (stereo partly drawn) [Brevicidine, brevicidine, reference compound] ({Hexanoyl(4ξ-Me)}-[dN][dY][dW][dOrn][Orn]G[dOrn]WTIGS; ester 9-C)
cytotoxicity / cell viability [1]: completely non-toxic

Minimum inhibitory concentration (MIC) [2]: 2 to 4 µg/mL
Minimum inhibitory concentration (MIC) [3]: 1 to 2 µg/mL
Minimum inhibitory concentration (MIC) [4]: 1 to 2 µg/mL
Minimum inhibitory concentration (MIC) [5]: 0.5 to 1 µg/mL
Minimum inhibitory concentration (MIC) [6]: 1 to 2 µg/mL
Minimum inhibitory concentration (MIC) [7]: >64 µg/mL
Minimum inhibitory concentration (MIC) [8]: 2 µg/mL (≈ 1.3 µM)
Minimum inhibitory concentration (MIC) [9]: 1 µg/mL (≈ 0.652 µM)
Minimum inhibitory concentration (MIC) [10]: 2 µg/mL (≈ 1.3 µM)
Minimum inhibitory concentration (MIC) [11]: 2 µg/mL (≈ 1.3 µM)
Minimum inhibitory concentration (MIC) [12]: 2 µg/mL (≈ 1.3 µM)
Minimum inhibitory concentration (MIC) [13]: 4 µg/mL (≈ 2.61 µM)
Minimum inhibitory concentration (MIC) [14]: 2 to 4 µg/mL
Compound: CCC(C)CCC(=O)N[C@H](CO)C(=O)N[C@H](Cc1ccc(O)cc1)C(=O)N[C@H](Cc1c[nH]c2ccccc12)C(=O)N[C@H](CCCN)C(=O)N[C@@H](CCCN)C(=O)NCC(=O)N[C@H](CCCN)C(=O)N[C@@H](Cc1c[nH]c2ccccc12)C(=O)N[C@H]1CNC(=O)CNC(=O)[C@H](CO)NC(=O)CNC(=O)[C@H]([C@@H](C)CC)NC1=O (stereo partly drawn) [Dap9-Relacidamide A] ({Hexanoyl(4ξ-Me)}-[dS][dY][dW][dOrn][Orn]G[dOrn]W[Dap]IGSG; lactam 9-C)

Compound: CC[C@H](C)[C@@H]1NC(=O)[C@@H](NC(=O)[C@H](Cc2c[nH]c3ccccc23)NC(=O)[C@@H](CCCN)NC(=O)CNC(=O)[C@H](CCCN)NC(=O)[C@@H](CCCN)NC(=O)[C@@H](Cc2c[nH]c3ccccc23)NC(=O)[C@@H](Cc2ccc(O)cc2)NC(=O)[C@@H](CO)NC(=O)CCCCCC(C)C)[C@@H](C)OC(=O)CNC(=O)CNC(=O)[C@H](CC(N)=O)NC1=O [Laterocidine, laterocidine, reference compound] ({Octanoyl(7-Me)}-[dS][dY][dW][dOrn][Orn]G[dOrn]WTINGG; ester 9-C)
Minimum inhibitory concentration (MIC) [15]: 0.5 µg/mL (≈ 0.312 µM)
Minimum inhibitory concentration (MIC) [16]: 2 µg/mL (≈ 1.25 µM)
Minimum inhibitory concentration (MIC) [17]: 1 µg/mL (≈ 0.623 µM)
cytotoxicity / cell viability [1]: completely non-toxic
Minimum inhibitory concentration (MIC) [18]: 1 µg/mL (≈ 0.623 µM)

Compound: CC[C@H](C)[C@@H]1NC(=O)[C@@H](NC(=O)[C@H](Cc2c[nH]c3ccccc23)NC(=O)[C@@H](CCCN)NC(=O)CNC(=O)[C@H](CCCN)NC(=O)[C@@H](CCCN)NC(=O)[C@@H](Cc2c[nH]c3ccccc23)NC(=O)[C@@H](Cc2ccc(O)cc2)NC(=O)[C@@H](CO)NC(=O)CCCCCC(C)C)COC(=O)CNC(=O)CNC(=O)[C@H](CC(N)=O)NC1=O [Ser9-Laterocidine] ({Octanoyl(7-Me)}-[dS][dY][dW][dOrn][Orn]G[dOrn]WSINGG; ester 9-C)
Minimum inhibitory concentration (MIC) [15]: 0.5 µg/mL (≈ 0.314 µM)
Minimum inhibitory concentration (MIC) [16]: 0.5 µg/mL (≈ 0.314 µM)
Minimum inhibitory concentration (MIC) [18]: 2 µg/mL (≈ 1.26 µM)

E. coli MIC [19]: 0.78 µg/mL
E. coli MIC [20]: 0.78 µg/mL
Compound: CCC(C)CCC(=O)N[C@H](CC(N)=O)C(=O)N[C@H](Cc1ccc(O)cc1)C(=O)N[C@H](Cc1c[nH]c2ccccc12)C(=O)N[C@H](CCCN)C(=O)N[C@@H](CCCN)C(=O)NCC(=O)N[C@H](CCCN)C(=O)N[C@@H](Cc1c[nH]c2ccccc12)C(=O)N[C@@H](CO)C(=O)N[C@H](C(=O)NCC(N)=O)[C@@H](C)CC (stereo partly drawn) [Und(9-Ser)-NH2] ({Hexanoyl(4ξ-Me)}-[dN][dY][dW][dOrn][Orn]G[dOrn]WSIG-NH2)

E. coli MIC [19]: 1.56 µg/mL
E. coli MIC [20]: 1.56 µg/mL
Compound: CCC(C)CCC(=O)N[C@H](CC(N)=O)C(=O)N[C@H](Cc1ccc(O)cc1)C(=O)N[C@H](Cc1c[nH]c2ccccc12)C(=O)N[C@H](CCCN)C(=O)N[C@@H](CCCN)C(=O)NCC(=O)N[C@H](CCCN)C(=O)N[C@@H](Cc1c[nH]c2ccccc12)C(=O)N[C@H](C(=O)N[C@H](C(=O)NCC(N)=O)[C@@H](C)CC)[C@@H](C)O (stereo partly drawn) [Und(9-Thr)-NH2] ({Hexanoyl(4ξ-Me)}-[dN][dY][dW][dOrn][Orn]G[dOrn]WTIG-NH2)

Compound: CC[C@@H](C)[C@H]1NC(=O)[C@H](NC(=O)[C@@H](Cc2c[nH]c3ccccc23)NC(=O)[C@H](CCCN)NC(=O)CNC(=O)[C@@H](CCCN)NC(=O)[C@H](CCCN)NC(=O)[C@H](Cc2c[nH]c3ccccc23)NC(=O)[C@H](Cc2ccc(O)cc2)NC(=O)[C@H](CO)NC(=O)CCCCCC(C)C)[C@H](C)OC(=O)CNC(=O)CNC(=O)[C@@H](CC(N)=O)NC1=O [ent- Laterocidine] ({Octanoyl(7-Me)}-SYW[Orn][dOrn]G[Orn][dW][dT][dI][dN]GG; ester 9-C)
Minimum inhibitory concentration (MIC) [15]: 8 to 16 µg/mL
Minimum inhibitory concentration (MIC) [16]: 8 to 16 µg/mL
Minimum inhibitory concentration (MIC) [17]: 8 to 16 µg/mL
Minimum inhibitory concentration (MIC) [18]: 4 to 8 µg/mL
